Our source for the IC50 and GI50 values is US20260250289A1, “BICYCLIC HETEROCYCLES AND THEIR USE AS WRN INHIBITORS” (Novartis AG, priority 2022, published 2026).

The target in experiment [1] is T1, WRN helicase (aa N517-P1238) (Homo sapiens, UniProt Q14191).
T1 construct: The core helicase motif of the WRN protein (aa N517-P1238) was produced for this assay; His (N); ZZ (N); 3C protease cleavage site (N); made in house; host or cells: Sf21 insect cells (baculovirus; virus and BIICs made in SF9)
The experiment is described as follows: WRN ATPase assay (DNA dependent ATP hydrolysis, ADP-Glo). To be noted: 3 hours pre-incubation, 300 micromolar ATP, FLAP26 DNA; geometric mean of at least 2. It counts as biochemical. An excerpt:
An ATPase assay was set up to measure the DNA dependent ATP hydrolysis activity of WRN helicase. This assay was used also to assess the inhibition properties of compounds of the invention on DNA dependent WRN ATPase activity.
The core helicase motif of the WRN protein (aa N517-P1238) was produced for this assay (protein production as described above). […] The ADP-Glo assay kit (Promega, Madison, WI) allowing the quantification of ADP produced in ATP hydrolysis reactions was used for setting up this assay.
Time course experiments were first performed in order to determine the best enzymatic assay conditions (including buffer conditions, reaction time and concentrations of protein, ATP and DNA substrates). A typical reaction consists of 10 nM WRN protein, 0.2 nM FLAP26, and 300 micromolar ATP in the following assay buffer: 30 mM Tris pH7.5, 2 mM MgCl2, 0.02% BSA, 50 mM NaCl, 0.1% pluronic F127 prepared in DNAse free water.
To evaluate the inhibition properties of compounds of the invention, serial dilutions were prepared in DMSO (10 half log dilutions from a 10 mM DMSO solution). […] The reaction was stopped with the addition of 5 microliters of the first ADP-Glo reagent and incubated for one hour to remove the excess amount of ATP. Afterwards, 10 microliters of ATP detection reagent was added and incubated for an additional hour before reading. Luminescence output was recorded using Tecan 1000 reader, with 5 minutes delay before reading. Each concentration of compound was tested in duplicates in the assay plate.
Following normalization of activity values for the wells to % inhibition (% inhibition=[(high control-sample)/(high control-low control)]×100), IC50 fitting was carried out from the duplicate determinations present on each plate according to [4]. Data analysis can also be carried out using commercially available software designed to derive IC50 values using 4-parameter fits (e.g. GraphPad Prism, XL fit). The reported IC50 values are the geometrical means of at least 2 independent replicates.

The test system of the next experiment is SW48 cells. The experiment is described as follows: Proliferation assay SW48 (CellTiterGlo). It counts as cell-based. To be noted: Homo sapiens, SW48, 96 h, read-out: Proliferation Assay SW48 GI50. An excerpt:
The colon carcinoma cell lines SW48 (RRID: CVCL_1724), HCT 116 (RRID: CVCL_0291) and SNU-407 (RRID: CVCL_5058) were obtained from ATCC. The WRN-knockdown insensitive colon carcinoma cell line DLD-1 (RRID: CVCL_0248) was obtained from the Korean Cell Line Bank (KCLB), and used to generate a derivative in which the endogenous WRN gene copies were knocked out by CRISPR-mediated editing using standard CRISPR methods. The resulting cell line, DLD1-WRN-KO, was used to assess potential off-target compound effects.
SW48, SNU-407 and DLD1-WRN-KO cells were cultured in growth medium composed of RPMI-1640 (Amimed Cat #1-41F22-1), 2 mM L-Glutamine (Amimed Cat #5-10K50), 10 mM HEPES (Gibco Cat #15630-056), 1 mM sodium pyruvate (Amimed Cat #5-60F00-H), 1× Penicillin-Streptomycin (Amimed Cat #4-01F00-H) and 10% fetal calf serum (Amimed Cat #2-01F30-G, Lot #LB11566P). HCT 116 cells were cultured in growth medium composed of McCoys 5A (Amimed catalog #1-18F01-1), 2 mM L-Glutamine (Amimed Cat #5-10K50), 1× Penicillin-Streptomycin (Amimed Cat #4-01F00-H) and 10% fetal calf serum (Amimed Cat #2-01F30-G, Lot #LB11566P). All cells were maintained at 37° C. in a humidified 5% CO2 incubator.
Following filtration through a Steriflip-NY 20 μm filter (Millipore Cat #SCNY00020), trypsinized cells were seeded in 100 microliters growth medium at 2,000 (SW48) or 1,500 (SNU-407, DLD1-WRN-KO, HCT 116) cells/well into white, clear-bottom 96-well plates (Costar Cat #3903). Three replicate plates were prepared for each compound treatment condition. In addition, one plate (termed “day 0”) was prepared to quantify the number of viable cells at the time of compound addition. Following overnight incubation at 37° C. in a humidified 5% CO2 atmosphere, eight 3-fold serial dilutions of a given compound stock (obtained at a concentration of 10 mM in DMSO and stored at 4° C.) were dispensed directly into each of the triplicate assay plates using a HP 300D non-contact Digital Dispenser (TECAN). The final concentration of DMSO was normalized to 0.1% in all wells. 96 hours after compound addition, cellular ATP levels as a surrogate for cell viability was assessed following addition of 50 microliters CellTiterGlo (Promega Cat #G7573) reagent and luminescence quantification on a MPLEX multi-mode plate-reader (TECAN) following a 10 minute incubation at room temperature. The number of viable cells in the “day 0” plate were quantified identically on the day of compound addition.
For data analysis, the assay background signal that was determined in wells containing medium, but no cells, was subtracted from all other data points prior to further calculations. The extent of growth inhibition and potential cell kill was assessed by comparing the ATP levels (measured using CellTiterGlo, Promega) in compound-treated cells with those present at the time of compound addition. To this end, the following conditional concept was programmatically applied in HELIOS, an in-house software applying a multi-step decision tree to arrive at optimal concentration response curve fits (Gubler et al, SLAS DOI: 10.1177/2472555217752140) to calculate % growth (% G) for each compound-treated well: % G=(T−V0)/V0))*100 when T<V0, and % G=(T−V0)/(V−V0)))*100 when T≥V0, where V0 is the viability level at time of compound addition, while V and T represent vehicle-control and compound-treated viability levels, respectively, at the end of the compound incubation. 100%, 0% and −100% signify absence of growth inhibition, growth stasis, and complete cell kill, respectively. Compound concentrations leading to half-maximal growth inhibition (GI50) and residual cell viability at the highest tested compound concentration (Data (cmax), expressed in percent) were routinely calculated. Data analysis can also be carried out using commercially available software designed to derive IC50 values using 4-parameter fits (e.g. GraphPad Prism, XL fit). […]
(In general: ATP-based viability assays read luminescence as a measure of living cells.)

The next experiment concerns DLD1-WRN-KO cells. The experiment is described as follows: Proliferation assay DLD1-WRN-KO (CellTiterGlo, off-target effects). It counts as cell-based. To be noted: 96 hours, geometric mean of at least 2. Here is the method:
The WRN-knockdown insensitive colon carcinoma cell line DLD-1 (RRID: CVCL_0248) was obtained from the Korean Cell Line Bank (KCLB), and used to generate a derivative in which the endogenous WRN gene copies were knocked out by CRISPR-mediated editing using standard CRISPR methods. The resulting cell line, DLD1-WRN-KO, was used to assess potential off-target compound effects. […]
Three replicate plates were prepared for each compound treatment condition. In addition, one plate (termed “day 0”) was prepared to quantify the number of viable cells at the time of compound addition. Following overnight incubation at 37° C. in a humidified 5% CO2 atmosphere, eight 3-fold serial dilutions of a given compound stock (obtained at a concentration of 10 mM in DMSO and stored at 4° C.) were dispensed directly into each of the triplicate assay plates using a HP 300D non-contact Digital Dispenser (TECAN). The final concentration of DMSO was normalized to 0.1% in all wells. 96 hours after compound addition, cellular ATP levels as a surrogate for cell viability was assessed following addition of 50 microliters CellTiterGlo (Promega Cat #G7573) reagent and luminescence quantification on a MPLEX multi-mode plate-reader (TECAN) following a 10 minute incubation at room temperature. The number of viable cells in the “day 0” plate were quantified identically on the day of compound addition.
For data analysis, the assay background signal that was determined in wells containing medium, but no cells, was subtracted from all other data points prior to further calculations. The extent of growth inhibition and potential cell kill was assessed by comparing the ATP levels (measured using CellTiterGlo, Promega) in compound-treated cells with those present at the time of compound addition. […] 100%, 0% and −100% signify absence of growth inhibition, growth stasis, and complete cell kill, respectively. Compound concentrations leading to half-maximal growth inhibition (GI50) and residual cell viability at the highest tested compound concentration (Data (cmax), expressed in percent) were routinely calculated. Data analysis can also be carried out using commercially available software designed to derive IC50 values using 4-parameter fits (e.g. GraphPad Prism, XL fit). The reported GI50 values are the geometrical means of at least 2 independent replicates.

Where [2] appears, read: SW48 colon carcinoma cells, 96 hours, CellTiterGlo, geometric mean of at least 2.

The structures appear in SMILES notation. Read-outs that look alike come from different tables or passages of the source. A value given as a limit tells only on which side of the number the result lay.

T1 sequence (Q14191 517-1238): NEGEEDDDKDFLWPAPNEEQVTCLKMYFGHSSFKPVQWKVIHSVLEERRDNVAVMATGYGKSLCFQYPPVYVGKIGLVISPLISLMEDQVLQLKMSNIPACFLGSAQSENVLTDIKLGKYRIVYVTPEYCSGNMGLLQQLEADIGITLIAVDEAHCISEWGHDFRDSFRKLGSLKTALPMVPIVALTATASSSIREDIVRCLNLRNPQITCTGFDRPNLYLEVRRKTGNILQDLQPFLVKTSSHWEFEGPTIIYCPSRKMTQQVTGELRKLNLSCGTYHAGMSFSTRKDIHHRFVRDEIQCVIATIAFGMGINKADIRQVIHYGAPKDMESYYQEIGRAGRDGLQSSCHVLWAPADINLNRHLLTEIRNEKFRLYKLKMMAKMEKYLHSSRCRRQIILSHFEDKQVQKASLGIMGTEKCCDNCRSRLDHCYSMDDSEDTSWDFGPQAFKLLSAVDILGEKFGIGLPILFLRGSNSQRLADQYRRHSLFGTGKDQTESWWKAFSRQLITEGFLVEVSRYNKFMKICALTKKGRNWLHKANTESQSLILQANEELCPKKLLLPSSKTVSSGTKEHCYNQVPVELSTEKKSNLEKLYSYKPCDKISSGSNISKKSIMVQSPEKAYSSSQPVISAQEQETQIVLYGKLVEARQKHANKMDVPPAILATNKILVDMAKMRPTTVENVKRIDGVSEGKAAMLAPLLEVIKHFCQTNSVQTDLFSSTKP

`Cc1ccnc(O)c1C(=O)N1CCN(c2c(C)n(CC(=O)Nc3ccc(C(F)(F)F)cc3)c3nc(C4=CCOCC4)nn3c2=O)CC1` [Example 27, 2-(2-(3,6-dihydro-2H-pyran-4-yl)-6-(4-(2-hydroxy-4-methylnicotinoyl)piperazin-1-yl)-5-methyl-7-oxo-[1,2,4]triazolo[1,5-a]pyrimidin-4(7H)-yl)-N-(4-(trifluoromethyl)phenyl)acetamide] registered an IC50 in experiment [1] of 300 nM. Besides, the GI50 in the experiment on SW48 cells (setting [2]) and with DLD1-WRN-KO cells was greater than 10000 nM each time.

In experiment [1], `Cc1c(N2CCN(C(=O)c3cccnc3O)CC2)c(=O)n2nc(C3=CCOCC3)nc2n1CC(=O)Nc1ccc(C(F)(F)F)cc1` [Example 48, 2-(2-(3,6-dihydro-2H-pyran-4-yl)-6-(4-(2-hydroxynicotinoyl)piperazin-1-yl)-5-methyl-7-oxo-[1,2,4]triazolo[1,5-a]pyrimidin-4(7H)-yl)-N-(4-(trifluoromethyl)phenyl)acetamide] returned an IC50 of 100 nM. Also, the GI50 in the experiment with SW48 cells (setting [2]) and in the experiment with DLD1-WRN-KO cells was greater than 10000 nM each time.

As to `CC(=O)N1CC=C(c2nc3n(CC(=O)Nc4ccc(S(F)(F)(F)(F)F)cc4)c(C)c(N4CCN(C(C)=O)CC4)c(=O)n3n2)CC1` [Example 71, 2-(2-(1-acetyl-1,2,3,6-tetrahydropyridin-4-yl)-6-(4-acetylpiperazin-1-yl)-5-methyl-7-oxo-[1,2,4]triazolo[1,5-a]pyrimidin-4(7H)-yl)-N-(4-(pentafluoro-l6-sulfaneyl)phenyl)acetamide], 90 nM corresponded to half-maximal inhibition in experiment [1] (IC50). Further, the GI50 in the experiment on SW48 cells (setting [2]) is 5000 nM; with DLD1-WRN-KO cells it was greater than 10000 nM.

`CCc1c(N2CCN(C(=O)c3nccc4cc[nH]c34)CC2)c(=O)n2nc(C3=CCOCC3)nc2n1CC(=O)Nc1ccc(C(F)(F)F)cc1C` [Example 41, 2-(6-(4-(1H-pyrrolo[2,3-c]pyridine-7-carbonyl)piperazin-1-yl)-2-(3,6-dihydro-2H-pyran-4-yl)-5-ethyl-7-oxo-[1,2,4]triazolo[1,5-a]pyrimidin-4(7H)-yl)-N-(2-methyl-4-(trifluoromethyl)phenyl)acetamide]: the GI50 in the experiment on SW48 cells worked out at 100 nM.

`CC(=O)N1CCC(c2c(C)n(CC(=O)Nc3ccc(C(F)(F)F)cc3)c3nc(C4=CCCCC4)nn3c2=O)CC1` [Example 145, 2-(6-(1-acetylpiperidin-4-yl)-2-(cyclohex-1-en-1-yl)-5-methyl-7-oxo-[1,2,4]triazolo[1,5-a]pyrimidin-4(7H)-yl)-N-(4-(trifluoromethyl)phenyl)acetamide]: the GI50 with SW48 cells (setting [2]) was found to be 2000 nM.

With `CCc1ccc(NC(=O)Cn2c(C)c(C3CCN(C(C)=O)CC3)c(=O)n3nc(C4=CCOCC4)nc23)cc1Cl` [Example 144, 2-(6-(1-acetylpiperidin-4-yl)-2-(3,6-dihydro-2H-pyran-4-yl)-5-methyl-7-oxo-[1,2,4]triazolo[1,5-a]pyrimidin-4(7H)-yl)-N-(3-chloro-4-ethylphenyl)acetamide], the GI50 in the experiment with SW48 cells (setting [2]) was determined as 3000 nM.

On to `Cc1c(N2CCN(C(=O)NNC(=O)C(F)(F)F)CC2)c(=O)n2nc(C3=CCOCC3)nc2n1CC(=O)Nc1ccc(C(F)(F)F)cc1` [Example 165, 2-(2-(3,6-dihydro-2H-pyran-4-yl)-5-methyl-7-oxo-6-(4-(2-(2,2,2-trifluoroacetyl)hydrazine-1-carbonyl)piperazin-1-yl)-[1,2,4]triazolo[1,5-a]pyrimidin-4(7H)-yl)-N-(4-(trifluoromethyl)phenyl)acetamide], for which half-maximal inhibition in experiment [1] (IC50) required 90 nM. Also, the GI50 in the experiment on SW48 cells (setting [2]) is greater than 10000 nM.

On to `Cc1c(N2CCN(C(=O)c3cc(F)ccc3O)CC2)c(=O)n2nc(N3CCOCC3)nc2n1CC(=O)Nc1ccc(C(F)(F)F)cc1` [Example 151, 2-(6-(4-(5-fluoro-2-hydroxybenzoyl)piperazin-1-yl)-5-methyl-2-morpholino-7-oxo-[1,2,4]triazolo[1,5-a]pyrimidin-4(7H)-yl)-N-(4-(trifluoromethyl)phenyl)acetamide], for which, in experiment [1], the IC50 stood at 200 nM. Also, in the experiment on SW48 cells (setting [2]), the GI50 turned out to be 4000 nM.

Usually IC50 stands for the point on the concentration scale where inhibition reaches its midpoint. A higher IC50 goes with a need for much substance.
